Experimental data reported in PubChem BioAssay (NCI).
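The compound was tested at five concentrations on cells cultured in 96-well plates, with a 48-hour exposure period. Here, GI50 denotes the concentration required for 50% inhibition of growth. TGI: concentration producing complete growth inhibition.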

Assays:
Experiment in all cases: inhibition of tumour cell growth, NCI panel, 48 h
786-0 renal = system: 786-0 renal
A498 renal = system: A498 renal
A549 NSCLC = system: A549 NSCLC
ACHN renal = system: ACHN renal
BT-549 breast = system: BT-549 breast
CAKI-1 renal = system: CAKI-1 renal
CCRF-CEM leukemia = system: CCRF-CEM leukemia
DU-145 prostate = system: DU-145 prostate
EKVX NSCLC = system: EKVX NSCLC
HCC-2998 colon = system: HCC-2998 colon
HCT-116 colon = system: HCT-116 colon
HCT-15 colon = system: HCT-15 colon
HL-60(TB) leukemia = system: HL-60(TB) leukemia
HOP-62 NSCLC = system: HOP-62 NSCLC
HOP-92 NSCLC = system: HOP-92 NSCLC
HS 578T breast = system: HS 578T breast
HT29 colon = system: HT29 colon
IGROV1 ovarian = system: IGROV1 ovarian
K-562 leukemia = system: K-562 leukemia
KM12 colon = system: KM12 colon
LOX IMVI melanoma = system: LOX IMVI melanoma
M14 melanoma = system: M14 melanoma
MALME-3M melanoma = system: MALME-3M melanoma
MCF7 breast = system: MCF7 breast
MDA-MB-231 breast = system: MDA-MB-231 breast
MDA-MB-435 = system: MDA-MB-435
MOLT-4 leukemia = system: MOLT-4 leukemia
NCI-H226 lung = system: NCI-H226 lung
NCI-H23 lung = system: NCI-H23 lung
NCI-H460 lung = system: NCI-H460 lung
NCI/ADR-RES ovarian = system: NCI/ADR-RES ovarian
OVCAR-3 ovarian = system: OVCAR-3 ovarian
OVCAR-4 ovarian = system: OVCAR-4 ovarian
OVCAR-5 ovarian = system: OVCAR-5 ovarian
OVCAR-8 ovarian = system: OVCAR-8 ovarian
PC-3 prostate = system: PC-3 prostate
RPMI-8226 leukemia = system: RPMI-8226 leukemia
RXF 393 renal = system: RXF 393 renal
SF-268 CNS = system: SF-268 CNS
SF-295 CNS = system: SF-295 CNS
SF-539 CNS = system: SF-539 CNS
SK-MEL-2 melanoma = system: SK-MEL-2 melanoma
SK-MEL-28 melanoma = system: SK-MEL-28 melanoma
SK-MEL-5 melanoma = system: SK-MEL-5 melanoma
SK-OV-3 ovarian = system: SK-OV-3 ovarian
SN12C renal = system: SN12C renal
SNB-19 CNS = system: SNB-19 CNS
SNB-75 CNS = system: SNB-75 CNS
SW-620 colon = system: SW-620 colon
T-47D breast = system: T-47D breast
TK-10 renal = system: TK-10 renal
U251 CNS = system: U251 CNS
UACC-257 melanoma = system: UACC-257 melanoma
UACC-62 melanoma = system: UACC-62 melanoma
UO-31 renal = system: UO-31 renal

SMILES: IP(CCCSc1n(Cc2ccc3ccccc3c2)c(-c2ccccc2)c(-c2ccccc2)[n+]1Cc1ccc2ccccc2c1)(c1ccccc1)(c1ccccc1)c1ccccc1
- GI50 (786-0 renal): 5.81 µM
- TGI (786-0 renal): 40.1 µM
- GI50 (A498 renal): 3.88 µM
- TGI (A498 renal): 29.4 µM
- GI50 (A549 NSCLC): 4.49 µM
- TGI (A549 NSCLC): 36.1 µM
- GI50 (ACHN renal): 20.2 µM
- TGI (ACHN renal): 96.4 µM
- GI50 (BT-549 breast): 2.6 µM
- TGI (BT-549 breast): 7.25 µM
- GI50 (CAKI-1 renal): 9.96 µM
- TGI (CAKI-1 renal): 31.7 µM
- GI50 (CCRF-CEM leukemia): 3.11 µM
- TGI (CCRF-CEM leukemia): 12 µM
- GI50 (DU-145 prostate): 3.57 µM
- TGI (DU-145 prostate): 23.9 µM
- GI50 (EKVX NSCLC): 4.43 µM
- TGI (EKVX NSCLC): 43.1 µM
- GI50 (HCC-2998 colon): 3.74 µM
- TGI (HCC-2998 colon): 16.3 µM
- GI50 (HCT-116 colon): 2.99 µM
- TGI (HCT-116 colon): 10.6 µM
- GI50 (HCT-15 colon): 19.6 µM
- TGI (HCT-15 colon): > 100 µM
- GI50 (HL-60(TB) leukemia): 1.9 µM
- TGI (HL-60(TB) leukemia): 3.86 µM
- GI50 (HOP-62 NSCLC): 3.3 µM
- TGI (HOP-62 NSCLC): 23.4 µM
- GI50 (HOP-92 NSCLC): 1.69 µM
- TGI (HOP-92 NSCLC): 6.48 µM
- GI50 (HS 578T breast): 3.04 µM
- TGI (HS 578T breast): 14.1 µM
- GI50 (HT29 colon): 2.52 µM
- TGI (HT29 colon): 7.14 µM
- GI50 (IGROV1 ovarian): 2.96 µM
- TGI (IGROV1 ovarian): > 100 µM
- GI50 (K-562 leukemia): 3.05 µM
- TGI (K-562 leukemia): 10.4 µM
- GI50 (KM12 colon): 2.45 µM
- TGI (KM12 colon): 6.23 µM
- GI50 (LOX IMVI melanoma): 1.94 µM
- TGI (LOX IMVI melanoma): 4.49 µM
- GI50 (M14 melanoma): 3.34 µM
- TGI (M14 melanoma): 23 µM
- GI50 (MALME-3M melanoma): 2.37 µM
- TGI (MALME-3M melanoma): 8.23 µM
- GI50 (MCF7 breast): 2.77 µM
- TGI (MCF7 breast): 9 µM
- GI50 (MDA-MB-231 breast): 2.81 µM
- TGI (MDA-MB-231 breast): 9.58 µM
- GI50 (MDA-MB-435): 2.84 µM
- TGI (MDA-MB-435): 11 µM
- GI50 (MOLT-4 leukemia): 3.05 µM
- TGI (MOLT-4 leukemia): 11.5 µM
- GI50 (NCI-H226 lung): 12.2 µM
- TGI (NCI-H226 lung): 98.2 µM
- GI50 (NCI-H23 lung): 2.34 µM
- TGI (NCI-H23 lung): 7.13 µM
- GI50 (NCI-H460 lung): 2.53 µM
- TGI (NCI-H460 lung): 6.25 µM
- GI50 (NCI/ADR-RES ovarian): 17.3 µM
- TGI (NCI/ADR-RES ovarian): > 100 µM
- GI50 (OVCAR-3 ovarian): 2.81 µM
- TGI (OVCAR-3 ovarian): 8.86 µM
- GI50 (OVCAR-4 ovarian): 3.16 µM
- TGI (OVCAR-4 ovarian): 22.5 µM
- GI50 (OVCAR-5 ovarian): 3.59 µM
- TGI (OVCAR-5 ovarian): 17.4 µM
- GI50 (OVCAR-8 ovarian): 5.62 µM
- TGI (OVCAR-8 ovarian): > 100 µM
- GI50 (PC-3 prostate): 2.84 µM
- TGI (PC-3 prostate): 10.8 µM
- GI50 (RPMI-8226 leukemia): 2.49 µM
- TGI (RPMI-8226 leukemia): 6.81 µM
- GI50 (RXF 393 renal): 2.8 µM
- TGI (RXF 393 renal): 9.44 µM
- GI50 (SF-268 CNS): 3.42 µM
- TGI (SF-268 CNS): 20.3 µM
- GI50 (SF-295 CNS): 3.3 µM
- TGI (SF-295 CNS): 16.2 µM
- GI50 (SF-539 CNS): 3.08 µM
- TGI (SF-539 CNS): 9.57 µM
- GI50 (SK-MEL-2 melanoma): 2.05 µM
- TGI (SK-MEL-2 melanoma): 5.41 µM
- GI50 (SK-MEL-28 melanoma): 3.25 µM
- TGI (SK-MEL-28 melanoma): 15.9 µM
- GI50 (SK-MEL-5 melanoma): 2.42 µM
- TGI (SK-MEL-5 melanoma): 5.91 µM
- GI50 (SK-OV-3 ovarian): 3.9 µM
- TGI (SK-OV-3 ovarian): 38.4 µM
- GI50 (SN12C renal): 4.07 µM
- TGI (SN12C renal): 17.4 µM
- GI50 (SNB-19 CNS): 2.39 µM
- TGI (SNB-19 CNS): 16.7 µM
- GI50 (SNB-75 CNS): 2.03 µM
- TGI (SNB-75 CNS): 9.21 µM
- GI50 (SW-620 colon): 3.56 µM
- TGI (SW-620 colon): 21.9 µM
- GI50 (T-47D breast): 2.89 µM
- TGI (T-47D breast): 14.1 µM
- GI50 (TK-10 renal): 8.12 µM
- TGI (TK-10 renal): 59 µM
- GI50 (U251 CNS): 3.26 µM
- TGI (U251 CNS): > 100 µM
- GI50 (UACC-257 melanoma): 2.89 µM
- TGI (UACC-257 melanoma): 9.64 µM
- GI50 (UACC-62 melanoma): 2.35 µM
- TGI (UACC-62 melanoma): 7.91 µM
- GI50 (UO-31 renal): 5.55 µM
- TGI (UO-31 renal): > 100 µM
